In the experiment the test system is MDA-MB-435. The experiment is described as follows: Inhibition of alpha3beta1 integrin-dependent adhesion of MDA-MB-435 cells. Format: functional, cell-based. The conditions noted are these: Homo sapiens.

Where a SMILES comes first, the peptide text is derived from it. Bridges are numbered along the chain shown (N, C = ends). A value given as a limit tells only on which side of the number the result lay.

IC50 data for 9 compounds are collected here from ChEMBL document CHEMBL1137392, “Conformational analysis of an alpha3beta1 integrin-binding peptide from thrombospondin-1: implications for antiangiogenic drug design” (J Med Chem, 2006).

Regarding H-FQGVLQAVRFVF-OH, the IC50 (as a rule, the concentration that gives 50% inhibition) amounted to 300 µM. Regarding H-FQGVLQNLRFVF-OH, the IC50 worked out at 17 µM. The figure for H-FQGVLQDVRFVF-OH is 13 µM; for `CC(C)[C@@H]1NC(=O)[C@H](CC(N)=O)NC(=O)[C@@H](N)CSSC[C@@H](C(=O)O)NC(=O)[C@H](CCCN=C(N)N)NC1=O` (H-CNVRC-OH; disulfide 1-5) it is above 300 µM. Next, `NC(=O)C[C@@H]1NC(=O)[C@@H](N)CSSC[C@@H](C(=O)O)NC(=O)[C@H](CCCN=C(N)N)NC(=O)CNC1=O` (H-CNGRC-OH; disulfide 1-5): above 300 µM; `CC(=O)N[C@H](Cc1ccccc1)C(=O)N[C@@H](C(=O)N[C@H](Cc1ccccc1)C(=O)N[C@H](CCCN=C(N)N)C(=O)N[C@@H](C(=O)N[C@H](CC(N)=O)C(=O)N[C@H](CCC(N)=O)C(=O)N[C@H](CC(C)C)C(=O)N[C@@H](C(=O)NCC(=O)N[C@H](CCC(N)=O)C(=O)N[C@H](Cc1ccccc1)C(N)=O)C(C)C)C(C)C)C(C)C`: 16 µM; H-FQGVLQNARFVF-OH: above 300 µM. The figure for H-FQGVLQQVRFVF-OH is 27 µM; for H-FQGVLQNVAFVF-OH it is above 300 µM.
